Entries after “also recorded” stand apart in the source; their conditions may differ.
Experiments:
[1] = Quantitative whole body autoradiography; format: in vivo, rat; conditions: for Concentration of radioactivity, Blood / Concentration of radioactivity, Brain / Concentration of radioactivity, Large intestine wall / Concentration of radioactivity, Liver / Concentration of radioactivity, Spinal cord / Concentration of radioactivity, Fetus (whole) / Concentration of radioactivity, Placenta / Concentration of radioactivity, Uterus: single oral 50 mg/kg
Description: Quantitative whole body autoradiography was conducted to track the overall distribution of a single oral dose of radiolabeled naloxegol in adult male and pregnant female rats.
Seven male Lister hooded rats (8–9 weeks old at dosing, body weight 255–290 g each) and 5 time-mated female Sprague-Dawley rats (body weight 347–392 g each) were supplied by Charles River UK Limited (Margate, Kent, UK). All animals were acclimated to the experimental unit before the study (males, 6 days; females, 13 days).
Animals were fasted overnight before dose administration. […] Male rats were administered a mean (±S.D.) of 5.62 (±0.06) MBq/kg; female rats received a mean of 5.60 (±0.03) MBq/kg.
One male rat was humanely euthanized by CO2 narcosis at 0.5, 1, 4, 24, 48, 168, and 504 hours postdose, respectively. One time-mated female rat was humanely euthanized at 0.5, 1, 4, 24, and 48 hours postdose, respectively.
After removal of the whiskers, legs, and tails, the carcasses were frozen by immersion in a mixture of solid CO2 in hexane for approximately 30 minutes and then embedded in a block of carboxymethylcellulose, which was frozen in the same way. After equilibration at approximately –20°C, sagittal sections (30 μm thick) were taken using a whole body cryomicrotome (Leica Biosystems GmbH, Nussloch, Germany). The sections were freeze dried in a chamber of the cryomicrotome before storage at ambient temperature. Carcasses were stored frozen (–20°C) until analysis. After analysis, samples were returned to storage at –20°C. Freeze-dried whole body sections were stored at room temperature.
The radioactivity present in various organs and tissues in whole body sections was determined by QWBA. After exposure, the imaging plates were scanned using a phosphorimage analyzer. Tissues and organs of interest were quantified using AIDA image analysis software (version 4.06; Raytest Isotopenmeßgeräte GmbH, Straubenhardt, Germany). For analysis, representative whole body sections were placed into close contact with phosphor screens and left for a 7-day period. A set of external standards were also exposed on each phosphor screen. These standards were prepared from blood spiked with a serial dilution of a ^14C-labeled reference solution, which was dispensed into holes drilled into a block of carboxymethylcellulose, frozen, and then sectioned in the same way as the animal samples.
After the phosphor screen was scanned, an image of the radioactivity in the sample was stored digitally. For quantitative analysis, six background areas were defined on each stored phosphor screen image. The software automatically calculated the mean background and subsequently subtracted this from all standards and tissues analyzed. A regression coefficient was derived by comparing the response of each standard with the nominal disintegrations per minute per gram over the range of radioactive concentration used and forcing the response curve through the origin. The concentrations of the standards used were in the range of 0.09 to 826.31 μg Eq/g. The response curve was linear over these concentrations and was assumed to be linear to the limit of reliable determination.
Organs or tissues from representative autoradiograms were identified and integrated. The back-calculated tissue concentrations (μg Eq/g) were then determined by the software. The limit of reliable measurement for each storage screen was calculated from the assessment of the mean background of the plate and taken to be three times the S.D. of the mean above background. At the specific activity used in this study, the limit of reliable measurement was in the range of 0.06 to 0.16 μg Eq/g.

human δ-opioid receptor = biological target: T1, human δ-opioid receptor (Homo sapiens, UniProt P41143); assay: [35S]GTPγS functional assay, δ-opioid receptor (CHO membranes); format: biochemical; conditions: agonist mode, relative to DPDPE 10 µM; single experiment
T1 construct: expressed in transfected cells; host or cells: CHO cells
T1 sequence (P41143 whole entry): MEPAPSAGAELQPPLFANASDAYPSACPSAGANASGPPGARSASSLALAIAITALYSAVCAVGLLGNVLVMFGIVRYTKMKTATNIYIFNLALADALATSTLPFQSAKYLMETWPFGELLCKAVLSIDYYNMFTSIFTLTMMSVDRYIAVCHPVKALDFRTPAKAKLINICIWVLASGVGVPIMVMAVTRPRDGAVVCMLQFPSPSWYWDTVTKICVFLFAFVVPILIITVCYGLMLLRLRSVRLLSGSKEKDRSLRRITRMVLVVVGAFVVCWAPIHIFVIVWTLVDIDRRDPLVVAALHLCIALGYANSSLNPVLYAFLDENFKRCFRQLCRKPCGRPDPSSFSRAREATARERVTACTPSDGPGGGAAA

[2] = system: peripheral and central effects of morphine; parameters: method as in Eldon et al., 2015; conditions: healthy male volunteers administered morphine; ref Eldon et al., 2015; cited from earlier work
[3] = parameters: method as in Bui et al., 2016; conditions: quinidine; ref Bui et al., 2016; cited from earlier work

C=CCN1CC[C@]23c4c5ccc(O)c4O[C@H]2[C@@H](OCCOCCOCCOCCOCCOCCOCCOC)CC[C@@]3(O)[C@H]1C5 [Naloxegol, naloxegol]
Concentration of radioactivity, Blood ([1]; male rat, 0.5 h): 3.03 μg Eq/g
Concentration of radioactivity, Brain ([1]; male rat, 0.5 h): BLQ
Concentration of radioactivity, Large intestine wall ([1]; male rat, 0.5 h): 8.83 μg Eq/g
Concentration of radioactivity, Liver ([1]; male rat, 0.5 h): 43.40 μg Eq/g
Concentration of radioactivity, Spinal cord ([1]; male rat, 0.5 h): 0.06 μg Eq/g
Concentration of radioactivity, Blood ([1]; male rat, 1 h): 4.11 μg Eq/g
Concentration of radioactivity, Brain ([1]; male rat, 1 h): 0.21 μg Eq/g
Concentration of radioactivity, Large intestine wall ([1]; male rat, 1 h): 14.09 μg Eq/g
Concentration of radioactivity, Liver ([1]; male rat, 1 h): 66.49 μg Eq/g
Concentration of radioactivity, Spinal cord ([1]; male rat, 1 h): 0.15 μg Eq/g
Concentration of radioactivity, Blood ([1]; male rat, 4 h): 2.14 μg Eq/g
Concentration of radioactivity, Brain ([1]; male rat, 4 h): 0.14 μg Eq/g
Concentration of radioactivity, Large intestine wall ([1]; male rat, 4 h): 12.09 μg Eq/g
Concentration of radioactivity, Liver ([1]; male rat, 4 h): 58.74 μg Eq/g
Concentration of radioactivity, Liver ([1]; male rat, 24 h): 4.61 μg Eq/g
Concentration of radioactivity, Liver ([1]; male rat, 48 h): 7.74 μg Eq/g
Concentration of radioactivity, Liver ([1]; male rat, 168 h): 1.03 μg Eq/g
Concentration of radioactivity, Blood ([1]; pregnant female rat, 0.5 h): 12.38 μg Eq/g
Concentration of radioactivity, Brain ([1]; pregnant female rat, 0.5 h): 0.34 μg Eq/g
Concentration of radioactivity, Fetus (whole) ([1]; pregnant female rat, 0.5 h): 3.10 μg Eq/g
Concentration of radioactivity, Large intestine wall ([1]; pregnant female rat, 0.5 h): 23.61 μg Eq/g
Concentration of radioactivity, Liver ([1]; pregnant female rat, 0.5 h): 68.67 μg Eq/g
Concentration of radioactivity, Placenta ([1]; pregnant female rat, 0.5 h): 21.09 μg Eq/g
Concentration of radioactivity, Spinal cord ([1]; pregnant female rat, 0.5 h): 0.24 μg Eq/g
Concentration of radioactivity, Uterus ([1]; pregnant female rat, 0.5 h): 31.19 μg Eq/g
Concentration of radioactivity, Blood ([1]; pregnant female rat, 1 h): 7.80 μg Eq/g
Concentration of radioactivity, Brain ([1]; pregnant female rat, 1 h): 0.15 μg Eq/g
Concentration of radioactivity, Fetus (whole) ([1]; pregnant female rat, 1 h): 1.99 μg Eq/g
Concentration of radioactivity, Large intestine wall ([1]; pregnant female rat, 1 h): 25.20 μg Eq/g
Concentration of radioactivity, Liver ([1]; pregnant female rat, 1 h): 56.01 μg Eq/g
Concentration of radioactivity, Placenta ([1]; pregnant female rat, 1 h): 12.89 μg Eq/g
Concentration of radioactivity, Spinal cord ([1]; pregnant female rat, 1 h): 0.10 μg Eq/g
Concentration of radioactivity, Uterus ([1]; pregnant female rat, 1 h): 82.21 μg Eq/g
Concentration of radioactivity, Blood ([1]; pregnant female rat, 4 h): 6.92 μg Eq/g
Concentration of radioactivity, Brain ([1]; pregnant female rat, 4 h): 0.28 μg Eq/g
Concentration of radioactivity, Fetus (whole) ([1]; pregnant female rat, 4 h): 2.23 μg Eq/g
Concentration of radioactivity, Large intestine wall ([1]; pregnant female rat, 4 h): 37.45 μg Eq/g
Concentration of radioactivity, Liver ([1]; pregnant female rat, 4 h): 58.78 μg Eq/g
Concentration of radioactivity, Placenta ([1]; pregnant female rat, 4 h): 14.78 μg Eq/g
Concentration of radioactivity, Spinal cord ([1]; pregnant female rat, 4 h): 0.12 μg Eq/g
Concentration of radioactivity, Uterus ([1]; pregnant female rat, 4 h): 185.03 μg Eq/g
Concentration of radioactivity, Fetus (whole) ([1]; pregnant female rat, 24 h): 0.17 μg Eq/g
Concentration of radioactivity, Liver ([1]; pregnant female rat, 24 h): 4.42 μg Eq/g
Concentration of radioactivity, Placenta ([1]; pregnant female rat, 24 h): 0.16 μg Eq/g
Concentration of radioactivity, Uterus ([1]; pregnant female rat, 24 h): 19.04 μg Eq/g
Concentration of radioactivity, Fetus (whole) ([1]; pregnant female rat, 48 h): BLQ
Concentration of radioactivity, Liver ([1]; pregnant female rat, 48 h): 2.68 μg Eq/g
Concentration of radioactivity, Placenta ([1]; pregnant female rat, 48 h): BLQ
Concentration of radioactivity, Uterus ([1]; pregnant female rat, 48 h): 4.00 μg Eq/g
time to elimination of radioactivity from most tissues ([1]; rat, naloxegol-derived radioactivity): ≤ 24 h
agonism (human δ-opioid receptor): no agonism
effect on morphine-induced miosis [2]: no change in morphine-induced miosis
effect on orocecal transit time [2]: reduced orocecal transit time
CNS distribution when coadministered with a strong P-gp inhibitor [3]: unaffected
efflux transporter substrate status (Caco2 cells): substrate for at least one apically directed efflux transporter, likely the P-gp transporter; also recorded: substrate for the P-glycoprotein transporter

Reference: PMC5399635 (The Journal of Pharmacology and Experimental Therapeutics, 2017)
